ChEMBL document CHEMBL1833792, “Synthesis of glycoconjugate carbonic anhydrase inhibitors by ruthenium-catalysed azide-alkyne 1,3-dipolar cycloaddition” (Bioorg Med Chem Lett, 2011)

Assays:
[1] = Selectivity ratio of Ki for carbonic anhydrase 1 to Ki for carbonic anhydrase 9
[2] = Selectivity ratio of Ki for carbonic anhydrase 2 to Ki for carbonic anhydrase 9
[3] = molecular target: Carbonic anhydrase 1 (Homo sapiens) (UniProt P00915)
Description: Inhibition of recombinant carbonic anhydrase 1 by stopped flow CO2 hydration assay

[4] = molecular target: Carbonic anhydrase 2 (Homo sapiens) (UniProt P00918)
Description: Inhibition of recombinant carbonic anhydrase 2 by stopped flow CO2 hydration assay

[5] = molecular target: Carbonic anhydrase 9 (Homo sapiens) (UniProt Q16790)
Description: Inhibition of recombinant carbonic anhydrase 9 by stopped flow CO2 hydration assay

[6] = Selectivity ratio of Ki for carbonic anhydrase 1 to Ki for carbonic anhydrase 2

Sequence of Carbonic anhydrase 1 (Homo sapiens) (P00915 2-261 limits assumed): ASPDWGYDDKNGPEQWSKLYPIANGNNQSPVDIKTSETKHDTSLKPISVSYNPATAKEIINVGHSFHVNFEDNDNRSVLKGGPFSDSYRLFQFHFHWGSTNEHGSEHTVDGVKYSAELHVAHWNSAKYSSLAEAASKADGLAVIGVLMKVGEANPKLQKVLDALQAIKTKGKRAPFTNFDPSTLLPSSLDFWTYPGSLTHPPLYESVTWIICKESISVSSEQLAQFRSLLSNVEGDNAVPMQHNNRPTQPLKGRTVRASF

| Ratio Ki [1] | Ratio Ki [2] | Kis [3] | Kis [4] | Kis [5] | Ratio Ki [6] | Compound |
| --- | --- | --- | --- | --- | --- | --- |
| 11 | 1.1 | 74 nM | 7.5 nM | 7 nM |  | NS(=O)(=O)c1ccc(-c2cnnn2[C@@H]2O[C@H](CO)[C@@H](O)[C@H](O)[C@H]2O)cc1 |
| 64 | 0.04 | 4390 nM | 2.9 nM | 68.3 nM | 1510 | CC(=O)O[C@H]1[C@H](OC(C)=O)[C@H](OC(C)=O)CO[C@H]1n1nncc1-c1ccc(S(N)(=O)=O)cc1 |
| 1.7 | 0.18 | 83 nM | 8.9 nM | 48.3 nM |  | NS(=O)(=O)c1ccc(-c2cnnn2[C@@H]2OC[C@@H](O)[C@@H](O)[C@@H]2O)cc1 |
| 9.4 | 1.7 | 79 nM | 13.9 nM | 8.4 nM |  | NS(=O)(=O)c1ccc(-c2cnnn2[C@@H]2O[C@H](CO)[C@H](O)[C@H](O)[C@H]2O)cc1 |
| 0.56 | 0.53 | 4.9 nM | 4.6 nM | 8.7 nM |  | NS(=O)(=O)c1ccc(-c2cnnn2[C@@H]2O[C@H](CO)[C@@H](O[C@H]3O[C@H](CO)[C@@H](O)[C@H](O)[C@H]3O)[C@H](O)[C@H]2O)cc1 |
| 0.91 | 0.85 | 6.7 nM | 6.3 nM | 7.4 nM |  | CC(=O)OC[C@H]1O[C@@H](n2nncc2-c2ccc(S(N)(=O)=O)cc2)[C@H](OC(C)=O)[C@@H](OC(C)=O)[C@@H]1O[C@H]1O[C@H](COC(C)=O)[C@@H](OC(C)=O)[C@H](OC(C)=O)[C@H]1OC(C)=O |
| 9.7 | 0.33 | 71 nM | 2.4 nM | 7.3 nM |  | CC(=O)OC[C@H]1O[C@@H](n2nncc2-c2ccc(S(N)(=O)=O)cc2)[C@H](OC(C)=O)[C@@H](OC(C)=O)[C@H]1OC(C)=O |
| 42.7 | 5 | 1360 nM | 163 nM | 32.6 nM |  | CC(=O)OC[C@H]1O[C@@H](n2nncc2-c2ccc(S(N)(=O)=O)cc2)[C@H](OC(C)=O)[C@@H](OC(C)=O)[C@@H]1OC(C)=O |
| 0.45 | 0.4 | 3.5 nM | 3.1 nM | 7.7 nM |  | COC(=O)[C@H]1O[C@@H](n2nncc2-c2ccc(S(N)(=O)=O)cc2)[C@H](OC(C)=O)[C@@H](OC(C)=O)[C@@H]1OC(C)=O |
